# Laboratory results reported in patent US20050048132A1, “Use of hydrochloric acid in the preparation of a medicament for the treatment of tumour” (priority 2001, published 2005).
# Read-outs that look alike come from different tables or passages of the source.
# Experiments:
# pig livers in vitro = conditions: 0.5 ml each; after 24 hours
# From the text: Twelve pig livers purchased from the market were divided into 4 groups, 3 in each group. A puncture needle was punctured to the center of the liver tissue and then connected with an automatic microinjecting pump.
# liver of hogs in vivo = conditions: 1.0 ml each into hog liver; 1 week after injection
# From the text: Experiment in vivo: Nine hogs (females and males) with average body weight of 70 kg were fed in an enclosed area. The hogs were divided into 3 groups, 3 hogs in each group. The hair on the location of liver was shaved and the skin was sterilized. […] The animals were dissected 1 week after the injection.
# S-180 sarcomas = conditions: forty-eight hours after injection; for Diameters of coagulating necrotic area / Gross shapes: 0.05 ml each into tumor 1 cm in size
# From the text: S-180 sarcomas were implanted into the hypodermal tissues of mice of Kun Ming species. When the tumor grew into 1 cm in size, a puncture needle was punctured into the center of the tumor and then connected with an automatic micro-injecting pump.
# cancer cells = assay: Cultivation of cancer cells in vitro together with gastric juice; format: cell-based
# kidney cancer = conditions: 1.5 ml of 18 wt % HCl, 3 months after treatment
# Experimental: Treatment of kidney cancer: guided by CT, the puncture needle hit the center of the tumor, 1.5 ml of 18 wt % HCl was injected into the tumor slowly.
# lungs of hogs = tested on: lungs of hogs
# From the text: The lung of the animal was dissected 1 week after the injection.
# [1] = tested on: recurrent carcinoma of breast; conditions: 1.0 ml of 18 wt % HCl, treated three times; tumor 2.0 cm×1.5 cm
# [2] = tested on: metastatic tumor of the adrenal gland from pulmonary carcinoma; conditions: 1.0 ml of 18 wt % HCl, treated three times
# [3] = tested on: primary bronchopulmonary carcinoma
# Experimental: Two cases of primary bronchopulmonary carcinoma which were pathologically confirmed were chosen. One was a case of adenocarcinoma, the other was a case of adenous prickle cell carcinoma. The sizes of the two tumors were 2.0×2.0 cm and 2.5×2.0 cm respectively. After CT location, guided by CT, percutaneous puncture was carried out on each case; the needle reached the center of the tumor and connected with an automatic micro-injecting pump, 1.5, 2.0 ml of 18 wt % HCl were injected into the tumors at a speed of 0.2 ml/min.
# [4] = tested on: cancerous pain due to advanced cancers; conditions: 3.6 wt % HCl to block and damage the nerves
# [5] = tested on: metastatic tumor of the left lobe of the brain from pulmonary adenocarcinoma; conditions: 1.0 ml of 18 wt % HCl, two times; tumor 1.9 cm×1.9 cm before; 3 months after treatment
# skin of guinea pig = conditions: 0.2 ml of 3.6 wt % HCl hypodermal
# Experimental: Six guinea pigs, female and males, 500 g each in body weight, were fed in the routine way. The guinea pig was anesthetized by ether. 0.2 ml of 3.6 wt % HCl was injected into the hypodermal tissue of the guinea pig.
# pig liver in vivo = conditions: for diameters of coagulated areas / pathological changes: 1 ml of 3.6% hydrochloric acid
# From the text: Ten hogs (females and males), with body weights of 70 kg on average, were fed in an enclosed area. The hair on the location of the liver of each hog was shaved and the skin sterilized guided by B-type ultrasonography. The puncture needle was punctured through the skin to the liver and then the needle was connected with an automatic micro-injecting pump. […] The animal was dissected at 1 week, 4 weeks, 12 weeks and 24 weeks after injection, and the shapes of the coagulating necrotic areas were observed and the diameters of the areas were measured. […] Then the liver tissue including normal tissue and coagulating necrotic tissue was fixed with formalin. Paraffin sections were prepared and the histopathological changes were observed under a microscope. […] Under a microscope, the structure of coagulating necrotic liver tissue was divided into two layers: the necrotic area in the center, and the surrounding reacting area.
# pig liver in vitro = tested on: pig liver in vitro
# Experimental: Thirty pig livers purchased from the market were divided into 10 groups, 3 in each group. […] One milliliter (1 ml) of hydrochloric acid solutions, (the concentrations being 1.8 wt %, 3.6 wt %, 7.2 wt %, 10.8 wt %, 14.4 wt %, 18 wt %, 25.2 wt %), and 1 ml , 0.5 ml, 0.1 ml respectively, of analytical pure hydrochloric acid were injected slowly to the […] of different groups, at a speed of 0.3 ml/min. The gross specimens were observed and the average value of the diameters of coagulated areas was determined.
# [6] = tested on: abdominal hypodermal tissue of mice
# Experimental: Thirty mice were used in the experiment. 0.05 ml of 3.8 wt % HCl was injected into the abdominal hypodermal tissue of each of them. […] Injection of 0.05 ml of normal saline was given to each of the remaining 6 mice which served as the control group. Normal saline was injected into the corresponding site where HCl had been injected to the other experimental mice.
# [7] = 1.5 ml-2.0 ml of 18 wt % HCl with i.v. 5 wt % sodium bicarbonate, 4 patients
# [8] = 1.5 ml-2.0 ml of 18 wt % HCl, one week after injection
# Experimental for W256 sarcoma: Rats, female and males, 500 g each in body weight, were fed routinely. Hypodermic implantation of W256 sarcoma was carried out. Sarcoma, 5 cm in diameter, was chosen. One (1.0) ml of 18 wt % HCl was slowly injected into the tumor. Twenty-four hours after injection, the rats were dissected, and the tumors were observed.
compound,measurement,setting,value
"CCO [100% absolute alcohol, absolute alcohol]",diameter of coagulating necrotic area,pig livers in vitro,0.5 cm
same,gross shape,pig livers in vitro,"spherical, white, the border"
same,diameter of coagulating necrotic area,liver of hogs in vivo,0.5 cm
same,gross examination of coagulating necrotic area,liver of hogs in vivo,"spherical, white in color"
same,Diameters of coagulating necrotic area,S-180 sarcomas,0.41 cm
same,Gross shapes,S-180 sarcomas,"spherical, white in color, the border"
Cl [hydrochloric acid],effect on cancer cells in culture,cancer cells,the destruction was due to gastric acid
same,appearance of tumor on re-examination,kidney cancer,high level echo locus without blood flow
same,diameter of tumor on re-examination,kidney cancer; tumor 3.0 cm×2.5 cm before,0.5 cm
same,reaction of animal at injection,lungs of hogs; 1.0 ml of 3.6 wt % HCl into the lung at 0.3 ml/min,coughed slightly
same,diameter of coagulated (consolidated) lung tissue,"lungs of hogs; 1.0 ml of 3.6 wt % HCl, 1 week after injection",1.8 cm
same,coagulating necrotic area on dissection of the lung,"lungs of hogs; 1.0 ml of 3.6 wt % HCl, four weeks after injection",the coagulating necrotic area became smaller
same,fate of necrotic substances,"lungs of hogs; 1.0 ml of 3.6 wt % HCl, three months after injection",the necrotic substances were absorbed
same,diameter of coagulating necrotic area,pig livers in vitro,2.2 cm
same,gross shape,pig livers in vitro,"spherical, grayish white in color, the"
same,tumor response,[1],basically turned into necrotic tissue
same,tumor response,[2],necrosis of the tumor occurred
same,cytological examination of needle puncture biopsy,"[3]; 1.5, 2.0 ml of 18 wt % HCl",found necrotic tissue
same,reactions during the treatment,"[3]; 1.5, 2.0 ml of 18 wt % HCl with i.v. 5% sodium bicarbonate, two patients",coughed slightly during the treatment; no other painful or toxic manifestations occurred
same,"pH value of blood, blood routine tests, liver and kidney function tests","[3]; 1.5, 2.0 ml of 18 wt % HCl, two patients",all normal
same,relief of cancerous pain,[4],pain could be relieved
same,diameter of brown necrotic tumor tissue,"W256 sarcoma; 1.0 ml of 18 wt % HCl into sarcoma 5 cm in diameter, 24 hours after injection",3.5 cm
same,death or intoxication during the treatment,W256 sarcoma; 1.0 ml of 18 wt % HCl intratumoral,no death or intoxication occurred among the rats
same,histopathologic changes by microscopy,"W256 sarcoma; 1.0 ml of 18 wt % HCl, 24 hours after injection",complete necrosis occurred in the necrotic area
same,size of metastatic tumor by intensified CT,[5],0.8 cm
same,"pH value of blood, blood routine tests, liver and kidney function tests",primary liver cancer; [7],all normal
same,painful or toxic manifestation,primary liver cancer; [7],None of the 4 patients had painful or toxic manifestation
same,color ultrasonography of the tumor,primary liver cancer; [8],high level echo without blood flow area
same,liver cancer sensitive index α-fetoglobulin value,primary liver cancer; [8],markedly lowered
same,skin change after injection,skin of guinea pig,the skin became rough and a little exudation occurred
same,skin change three weeks later,"skin of guinea pig; iodine tincture smeared, three weeks later",the surface became dry and scar was formed
same,diameter of surface of ulcer,skin of guinea pig; one week after injection,1.0 cm
same,diameters of coagulated areas,pig liver in vivo; 1 week after injection,1.8 cm
same,pathological changes,pig liver in vivo; 1 week after injection,"necrotic area occupies most part of the area,"
same,diameters of coagulated areas,pig liver in vivo; 4 weeks after injection,1.3 cm
same,pathological changes,pig liver in vivo; 4 weeks after injection,"The necrotic area became smaller, infiltration"
same,diameters of coagulated areas,pig liver in vivo; 12 weeks after injection,0.5 cm
same,pathological changes,pig liver in vivo; 12 weeks after injection,"The necrotic area became further smaller, the"
same,animal death during the experiment,pig liver in vivo; 1 ml of 3.6 wt % hydrochloric acid into hog liver,no animal died due to the treatment
same,diameter of round high level echo region at coagulated site by B-type ultrasonography,"pig liver in vivo; 1 ml of 3.6 wt % hydrochloric acid, immediately after injection",2.0 cm
same,fate of necrotic substances,"pig liver in vivo; 1 ml of 3.6 wt % hydrochloric acid, sixteen weeks after injection",the necrotic substances were absorbed
same,diameter of coagulating necrotic area,liver of hogs in vivo,2.1 cm
same,gross examination of coagulating necrotic area,liver of hogs in vivo,spheroid
same,Diameter of coagulated areas,"pig liver in vitro; 0.1 ml of analytic pure hydrochloric acid (36%), 24 hours after injection",1.5 cm
same,Diameter of coagulated areas,"pig liver in vitro; 0.1 ml of analytic pure hydrochloric acid (36%), immediately after injection",0.2 cm
same,Diameter of coagulated areas,"pig liver in vitro; 0.5 ml of analytic pure hydrochloric acid (36%), 24 hours after injection",3.9 cm
same,Diameter of coagulated areas,"pig liver in vitro; 0.5 ml of analytic pure hydrochloric acid (36%), immediately after injection",1.5 cm
same,Diameter of coagulated area,"pig liver in vitro; 1 ml of 1.8 % hydrochloric acid, 24 hours after injection",0.75 cm
same,Diameter of coagulated area,"pig liver in vitro; 1 ml of 1.8 % hydrochloric acid, immediately after injection",0.7 cm
same,Diameter of coagulated area,"pig liver in vitro; 1 ml of 3.6 % hydrochloric acid, 24 hours after injection",1.4 cm
same,Diameter of coagulated area,"pig liver in vitro; 1 ml of 3.6 % hydrochloric acid, immediately after injection",1.0 cm
same,Diameter of coagulated area,"pig liver in vitro; 1 ml of 7.2 % hydrochloric acid, 24 hours after injection",1.9 cm
same,Diameter of coagulated area,"pig liver in vitro; 1 ml of 7.2 % hydrochloric acid, immediately after injection",1.3 cm
same,Diameter of coagulated area,"pig liver in vitro; 1 ml of 10.8 % hydrochloric acid, 24 hours after injection",2.2 cm
same,Diameter of coagulated area,"pig liver in vitro; 1 ml of 10.8 % hydrochloric acid, immediately after injection",1.5 cm
same,Diameter of coagulated area,"pig liver in vitro; 1 ml of 14.4 % hydrochloric acid, 24 hours after injection",3.1 cm
same,Diameter of coagulated area,"pig liver in vitro; 1 ml of 14.4 % hydrochloric acid, immediately after injection",1.8 cm
same,Diameter of coagulated area,"pig liver in vitro; 1 ml of 18 % hydrochloric acid, 24 hours after injection",4.8 cm
same,Diameter of coagulated area,"pig liver in vitro; 1 ml of 18 % hydrochloric acid, immediately after injection",2.2 cm
same,Diameter of coagulated area,"pig liver in vitro; 1 ml of 25.2 % hydrochloric acid, 24 hours after injection",5.2 cm
same,Diameter of coagulated area,"pig liver in vitro; 1 ml of 25.2 % hydrochloric acid, immediately after injection",2.4 cm
same,Diameter of coagulated areas,"pig liver in vitro; 1.0 ml of analytic pure hydrochloric acid (36%), 24 hours after injection",5.5 cm
same,Diameter of coagulated areas,"pig liver in vitro; 1.0 ml of analytic pure hydrochloric acid (36%), immediately after injection",2.8 cm
same,damage in the abdominal organs by dissection,[6]; 0.05 ml of 3.8 wt % HCl abdominal hypodermal,No damage was found in the abdominal organs
same,diameters of damages (ulcer-like damages of the skin),[6]; 0.05 ml of 3.8 wt % HCl then 0.05 ml normal saline (control group),1.2 cm
same,diameters of scar areas,"[6]; 0.05 ml of 3.8 wt % HCl then normal saline (control group), one week later",0.9 cm
same,coagulating necrotic ranges of the liver,"hogs; 18 wt % HCl, 0.5, 1, 3 ml at 0.1, 0.5, 1 ml/min into hog liver, one week after injection",1.2-5.2 cm
same,death or intoxication,"hogs; 18 wt % HCl, 0.5 ml-3 ml into hog liver",No death or intoxication of hog occurred
same,Diameters of coagulating necrotic area,S-180 sarcomas,0.76 cm
same,Gross shapes,S-180 sarcomas,"spherical, caseous, grayish white in color,"
same,necrosis of the tumor,S-180 sarcomas; 0.05 ml,complete necrosis of the tumor
"CC(=O)O [50% acetic acid, acetic acid]",diameter of coagulating necrotic area,pig livers in vitro,2.0 cm
same,gross shape,pig livers in vitro,"lump-like, white, the border"
same,diameter of coagulating necrotic area,liver of hogs in vivo,about 1.8 cm
same,gross examination of coagulating necrotic area,liver of hogs in vivo,did not have a definite border
same,Diameters of coagulating necrotic area,S-180 sarcomas,0.62 cm
same,Gross shapes,S-180 sarcomas,"brown, the border was unclear,"
